Experiments:
LNCaP [1] = test: In vitro anti-cancer efficacy study of CTC-96, ATCC recommended growth condition (protocol GP687), cell viability and proliferation assay (RFU); assay type: cell-based, human
Description: (§1) B. In Vitro Anti-Cancer Efficacy Study of CTC-96 in Cell Lines Maintained in ATCC Recommended Growth Condition Using Approved Protocol GP687
(§2) For example in FIG. 2C, on day 2 with 20 μg/mL CTC-96. […] This difference among the cell lines was quite consistent at all initial seeding densities except for the highest (100%). At the three lower density seedings, the decrease in relative fluorescence units (RFU) was in a near linear relationship with increase of CTC-96 dose for LNCaP and RWPE cells. Both cell types began to show a response to CTC-96 at 5 μg/mL. (see FIGS. 2 C and D).
(§3) When cell proliferation data were obtained for all time points, the RFU reading on day 3 was considerably lower than the projected trend line as shown in FIG. 1. The possible cause was the variation in the incubation time as described in GP687 9.5.2.3. […] Due to time constraints, the incubation time carried out was shorter on day three than for the […]. The longer the incubation time, the greater the RFLI measured. Therefore, day 3 incubation data were not included in the analysis, see FIG. 2. […] Different cell density seedings allowed this study to maximally evaluate the anticancer efficacy of CTC-96. In vitro anticancer effectiveness can be categorized into: killing and inhibiting effects. High density seeding provides maximal numbers of cells to reveal the killing effect, which leads to extensive cell death with quick onset. Also high cell density sometimes provides some protection against cytotoxic effects. Low density seeding reduces the effects of contact inhibition in non-malignant cell lines and allows longer incubation with the drug. The longer treatment time allows observation of maximum inhibitory drug effects. In addition, low density cell seeding allows untreated cells to undergo several cell divisions.
(§4) In this study, four seeding densities of 100%, 50%, 25% and 12.5% were planned for each cell line.

Malme-3M [2] = test: as above; assay type: cell-based, human; conditions: day 2, 20 μg/mL CTC-96, FIG. 2C, ATCC recommended medium
Description: as §1, §2, §3, §4

IMR = test: as above; assay type: cell-based; conditions: day 2, 20 μg/mL CTC-96, FIG. 2C, ATCC recommended medium
Description: as §1, §2, §3, §4

RWPE = test: as above; assay type: cell-based
Description: as §1, §2, §3, §4

IMR 90 = test: CTC-96 7-day treatment in RPMI1640/2% FBS (GP689 modified) and confirmation study, cell viability and proliferation assay; assay type: cell-based
Description: (§5) The study was performed as described in GP689 with modifications as follows:
(§6) The cell growth and test media was RPM11640/2% FBS. All cell lines were acclimated in this low-serum condition for about two weeks prior to treatment with CTC-96. CTC-96 treatment was extended to 7 days from the 3 days previously used. Cell viability and proliferation was measured and medium was changed on day 0, 2, 4 and 7. Fresh CTC-96 added during every medium change. Incubation for cell viability and proliferation assay was performed for 2 hours.
(§7) A new batch of all four test cell lines were acclimated in RPMII 640/2% FBS about 10 days prior to CTC-96 treatment. CTC-96 treatment started after […] of adaptation. A 96-well plate was used at the at the start of proliferation in an attempt to eliminate the peeling of LNCaP monolayers. A manual multichannel pipette was utilized to change medium on day 0. Peeling still occurred in one plate. That plate was arbitrarily assigned the last time point day 7 in order to have good plates of LNCaP for the first three time points in a row.
(§8) For medium changes on days 2, 4 and 7, only half of the media was replaced to completely eliminate the peeling in LNCaP. This method was utilized for the other three cell lines in order to keep the entire test system consistent for all the cell lines. The replacement media contained 1×CTC-96 concentrations and therefore only half of CTC-96 was freshly replaced. Incubation for cell viability and proliferation assay was performed for strictly 2 hours. Allover proliferation was good for all cell lines (see FIG. 6). Untreated ENCaP cells became 100% confluent in all seeding conditions on day 7. […] 4.2.5.2.1.3. The day 4 RFU reading was chosen in the proliferation percentage analysis because the peeling off in LNCaP Day 7 plate led to decrease on RFU so much that the trendline of untreated cells turned downwards instead of plateauing in high density seeding, (see FIG. 6 Al 3). Decay of CTC-96 may occur over 7 days period and inhibition might be lowered towards the end of treatment. The upward turn of the trendline for malignant cell lines in 5 μg/mL may indicate this decay, (see FIG. 6 A2-3, CI-4). Malignant cell lines were more sensitive to CTC-96 than their sister normal cell lines.

RWPE-1 = test: as above; assay type: cell-based
Description: as §5, §6, §7, §8

LNCaP [3] = test: as above; assay type: cell-based, human
Description: as §5, §6, §7, §8

Malme-3M [4] = test: as above; assay type: cell-based, human
Description: as §5, §6, §7, §8

[5] = 20 μg/mL CTC-96, day 2 vs day 0
[6] = FIGS. 2C and D, lower density seedings
[7] = day 2, 20 μg/mL CTC-96, FIG. 2C, ATCC recommended medium

Compound: CC(/C=C(/C)[O-])=NCCN=C(C)/C=C(/C)[O-].Cc1ncc[nH]1.Cc1ncc[nH]1.[Br-].[Co+3] [CTC-96]
- killing effect (net cell loss) (LNCaP [1]; [5]): lower number of cell on day 2 than on day 0
- concentration at which cells began to show a response (LNCaP [1]; [6]): 5 µg/mL
- total cells in comparison to untreated controls (LNCaP [1]; [7]): 12%
- total cells in comparison to untreated controls (Malme-3M [2]): 70%
- total cells in comparison to untreated controls (IMR): 72%
- killing effect (net cell loss) (RWPE; [5]): lower number of cell on day 2 than on day 0
- concentration at which cells began to show a response (RWPE; [6]): 5 µg/mL
- total cells in comparison to untreated controls (RWPE; [7]): 10%
- proliferation (IMR 90; IMR 90, 5 μg/mL): continues proliferating
- proliferation (IMR 90; IMR, 10 μg/mL CTC-96, RPMI1640/2% FBS, 7-day treatment): inhibited the proliferation
- inhibition (proliferation percentage, day 4 RFU) (IMR 90; IMR, 10 μg/mL, confirmation study, FIG. 7): lower degree of inhibition
- proliferation (RWPE-1; RWPE, 10 μg/mL CTC-96, RPMI1640/2% FBS, 7-day treatment): inhibited the proliferation
- inhibition (proliferation percentage, day 4 RFU) (RWPE-1; RWPE, 10 μg/mL, confirmation study, FIG. 7): lower degree of inhibition
- proliferation (RWPE-1; RWPE-1, 25% cell density, 5 t μm/mL): still proceeds proliferating, albeit, at a reduced rate
- proliferation (RWPE-1; RWPE-1, 50% cell density, same drug concentration (5 μm/mL)): minimally affected
- cell elimination (cell loss) (RWPE-1; RWPF-1 (non-malignant counterpart), seeding densities 50% and 25%, concentration that killed the malignant cell line): no cell loss
- cell number relative to originally seeded (LNCaP [3]; 5 μg/mL CTC-96, RPMI1640/2% FBS, 7-day treatment, FIG. 4A): almost no change, or even had fewer cells than originally seeded
- inhibition (proliferation percentage, day 4 RFU) (LNCaP [3]; 5 μg/mL, confirmation study, FIG. 7): greater inhibition
- proliferation (LNCaP [3]; 25% cell density, 5 t μm/mL): proliferation completely ceases
- proliferation diminished (LNCaP [3]; 50% cell density, 5 μm/mL CTC-96, RPMI 1640/2% FBS): 30-40%
- decrease in cell number compared to un-treated controls (LNCaP [3]; initial seeding densities of 50% and 25%, 5 μm/mL CTC-96): 30-50%
- proliferation (Malme-3M [4]; Malme 3M, 1 μg/mL): ceases proliferating
- cell elimination / proliferation (Malme-3M [4]; Malme 3M, 5 μg/mL drug concentration): not killed, but stopped proliferating
- cell number relative to originally seeded (Malme-3M [4]; Malme-3M, 5 μg/mL CTC-96, RPMI1640/2% FBS, 7-day treatment, FIG. 4C): almost no change, or even had fewer cells than originally seeded
- inhibition (proliferation percentage, day 4 RFU) (Malme-3M [4]; Malme-3M, 5 μg/mL, confirmation study, FIG. 7): greater inhibition
